Results reported in patent publication US20250034134A1, “15-PGDH INHIBITOR AND USE THEREOF” (Wuhan Humanwell Innovative Drug Research and Development …, priority 2021, published 2025).

How the values were obtained:
15-PGDH = 15-PGDH (Homo sapiens (Human), UniProt P15428); test: Inhibition test of compounds on 15-PGDH enzyme; assay type: biochemical
Procedure: 15-PGDH (R&D Systems, Cat. No.: 5660-DH-010) was prepared to twice the final concentration, i.e., 30 nM, using Assay Buffer (50 mM Tris-HCl, pH 7.5, 0.01vol % Tween 20). The obtained mixture was then added to a 384-well white plate (Cisbio Bioassays, Cat. No. 66PL384025) at 8 μL/well. Negative control wells (with Assay Buffer only and without enzyme) were set. The compound was then prepared to 4 times the final concentration using Assay Buffer, i.e., diluted 3-fold to 10 concentrations starting from 4000 nM. The obtained mixture was added to the above white plate at 4 μL/well, mixed well, centrifuged at 1000 rpm for 1 minute, and incubated at 25° C. for 10 minutes. Both positive control wells (with 15-PGDH only) and negative control wells (without 15-PGDH) were set. A mixture of NAD^+(Select, Cat. No. S2518) and PGE2 (R&D Systems, Cat. No.: 2296/10) was then prepared using Assay Buffer. NAD^+ and PGE2 were prepared to four times their final concentrations, i.e., 2 mM and 0.12 mM, respectively, using Assay Buffer. The obtained mixture was then added to the above white plate at 4 μL/well, mixed well, centrifuged at 1000 rpm for 1 minute, and incubated at 25° C. for 30 minutes for the reaction. The fluorescence was detected at an excitation wavelength of 340 nm and an emission wavelength of 485 nm using instrument TECAN SPARK 20M. The IC50 value was calculated using four-parameter fitting with GraphPad Prism 8.0.

A549 cells = test: Effect of compounds on PGE2 levels in A549 cell supernatant; assay type: cell-based; conditions: 20 nM compound, about 12 hours, after IL-10 stimulation; ELISA
Procedure: A549 cells (Procell, Wuhan) were cultured in F12K+10% FBS. The cells with good status in log phase were selected for the experiment, digested, counted, and inoculated into a 24-well plate at 8000 cells per well. The cells were cultured in a 37° C., 5% CO2 incubator overnight. After adherence, the cells were transferred to a culture medium containing 0.5% FBS and cultured for about 10 hours. IL-10 was added to each well (final concentration of 20 ng/mL, 1 mL per well), and a control group (without IL-10) was set up. After stimulation with IL-10 for about 24 hours, the cell culture medium of each well was aspirated and discarded, and the wells were gently washed with fresh culture medium containing 0.5% FBS. 400 μL of culture medium containing the compound of different concentrations (20 nM and 2500 nM) was added to each well and cultured for about 12 hours. The supernatant was collected and PGE2 was detected using ELISA kit (R&D Systems, Cat. No.: KGE004B).

15-PGDH, sequence (P15428 whole entry): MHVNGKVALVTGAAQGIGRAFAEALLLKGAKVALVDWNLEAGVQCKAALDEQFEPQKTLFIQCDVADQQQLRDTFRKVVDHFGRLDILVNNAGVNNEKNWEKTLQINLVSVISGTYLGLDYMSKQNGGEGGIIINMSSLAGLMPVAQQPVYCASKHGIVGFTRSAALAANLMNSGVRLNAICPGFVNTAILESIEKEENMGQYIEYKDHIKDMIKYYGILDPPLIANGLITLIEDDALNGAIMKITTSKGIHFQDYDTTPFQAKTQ

Row | SMILES | IC50 (15-PGDH) | Fold increase of PGE2 in A549 cell supernatant (A549 cells)
1 | O=C(c1cnc2c(c1)C1CC1CN2c1ccn2cnnc2c1)N1CCC(F)(F)CC1 (centres unmarked) [Compound I-17, (3-([1,2,4]triazolo[4,3-a]pyridin-7-yl)-1a,2,3,7b-tetrahydro-1H-cyclopropa[c][1,8]naphthyridin-6-yl)(4,4-difluoropiperidin-1-yl)methanone] | 4.5 nM | 2.2
2 | Cn1nc2cc(N3CC4CC4c4cc(C(=O)N5CCC[C@H](CF)C5)cnc43)ccn2c1=O (stereo partly drawn) [Compound I-31, 7-(6-((S)-3-(fluoromethyl)piperidine-1-carbonyl)-1,1a,2,7b-tetrahydro-3H-cyclopropa[c][1,8]naphthyridin-3-yl)-2-methyl-[1,2,4]triazolo[4,3-a]pyridin-3(2H)-one] | 4.1 nM | 2.90
3 | O=C(c1cnc2c(c1)C1CC1CN2c1ccn2ncnc2c1)N1CCC(F)(F)CC1 (centres unmarked) [Compound I-16, (3-([1,2,4]triazolo[1,5-a]pyridin-7-yl)-1a,2,3,7b-tetrahydro-1H-cyclopropa[c][1,8]naphthyridin-6-yl)(4,4-difluoropiperidin-1-yl)methanone] | 5.4 nM | 3.7
4 | CN1Cc2cc(N3CC4CC4c4cc(C(=O)N5CCC(F)(F)CC5)cnc43)ccc2C1=O (centres unmarked) [Compound I-1, 5-(6-(4,4-difluoropiperidine-1-carbonyl)-1,1a,2,7b-tetrahydro-3H-cyclopropa[c][1,8]naphthyridin-3-yl)-2-methylisoindolin-1-one] | 4.3 nM | 4.3
5 | Cn1nc2cc(N3CC4CC4c4cc(C(=O)N5CCC[C@@H](CF)C5)cnc43)ccn2c1=O (stereo partly drawn) [Compound I-30, 7-(6-((R)-3-(fluoromethyl)piperidine-1-carbonyl)-1,1a,2,7b-tetrahydro-3H-cyclopropa[c][1,8]naphthyridin-3-yl)-2-methyl-[1,2,4]triazolo[4,3-a]pyridin-3(2H)-one] | 6 nM | 2.72
6 | [2H]C([2H])([2H])n1nc2cc(N3CC4CC4c4cc(C(=O)N5CCC(F)(F)CC5)cnc43)ccn2c1=O (single isomer, unassigned) [Compound I-25B] | 3.78 nM | –
7 | Cn1nc2cc(N3CC4CC4c4cc(C(=O)N5CCC(F)(F)C5)cnc43)ccn2c1=O (centres unmarked) [Compound I-21, 7-(6-(3,3-difluoropyrrolidine-1-carbonyl)-1,1a,2,7b-tetrahydro-3H-cyclopropa[c][1,8]naphthyridin-3-yl)-2-methyl-[1,2,4]triazolo[4,3-a]pyridin-3(2H)-one] | 4.95 nM | 2.3
8 | Cn1ncc2cc(N3CC4CC4c4cc(C(=O)N5CCC(F)(F)CC5)ccc43)ccc2c1=O (centres unmarked) [Compound I-13, 6-(6-(4,4-difluoropiperidine-1-carbonyl)-1,1a,2,7b-tetrahydro-3H-cyclopropa[c]quinolin-3-yl)-2-methylphthalazin-1(2H)-one] | 4.03 nM | 6.1
9 | CN1Cc2cc(N3CC4CC4c4cc(C(=O)N5CCC(F)(F)CC5)cnc43)cnc2C1=O (centres unmarked) [Compound I-2, 3-(6-(4,4-difluoropiperidine-1-carbonyl)-1,1a,2,7b-tetrahydro-3H-cyclopropa[c][1,8]naphthyridin-3-yl)-6-methyl-5,6-dihydro-7H-pyrrolo[3,4-b]pyridin-7-one] | 5.15 nM | 5.23
10 | Cn1nc2cc(N3CC4CC4c4cc(C(=O)N5CC6CC6C5)cnc43)ccn2c1=O (centres unmarked) [Compound I-29, 7-(6-(3-azabicyclo[3.1.0]hexane-3-carbonyl)-1,1a,2,7b-tetrahydro-3H-cyclopropa[c][1,8]naphthyridin-3-yl)-2-methyl-[1,2,4]triazolo[4,3-a]pyridin-3(2H)-one] | 5.3 nM | 2.3
11 | CN1Cc2cc(N3CC4CC4c4cc(C(=O)N5CCC(F)(F)CC5)cnc43)ncc2C1=O (centres unmarked) [Compound I-18, 6-(6-(4,4-difluoropiperidine-1-carbonyl)-1,1a,2,7b-tetrahydro-3H-cyclopropa[c][1,8]naphthyridin-3-yl)-2-methyl-1,2-dihydro-3H-pyrrolo[3,4-c]pyridin-3-one] | 20 nM | –
12 | [2H]C([2H])([2H])n1nc2cc(N3CC4CC4c4cc(C(=O)N5CCC(F)(F)CC5)cnc43)ccn2c1=O (single isomer, unassigned) [Compound I-25A] | 15.8 nM | –
13 | CN1C(=O)c2ncc(N3CC4CC4c4cc(C(=O)N5CCC(F)(F)CC5)cnc43)cc2C12CC2 (centres unmarked) [Compound I-19, 3′-(6-(4,4-difluoropiperidine-1-carbonyl)-1,1a,2,7b-tetrahydro-3H-cyclopropa[c][1,8]naphthyridin-3-yl)-6′-methylspiro[cyclopropane-1,5′-pyrrolo[3,4-b]pyridin]-7′(6′H)-one] | 3.72 nM | 4.72
14 | CCn1nc2cc(N3CC4CC4c4cc(C(=O)N5CCC(F)(F)CC5)cnc43)ccn2c1=O (centres unmarked) [Compound I-32, 7-(6-(4,4-difluoropiperidine-1-carbonyl)-1,1a,2,7b-tetrahydro-3H-cyclopropa[c][1,8]naphthyridin-3-yl)-2-ethyl-[1,2,4]triazolo[4,3-a]pyridin-3(2H)-one] | 6.3 nM | 3.7
15 | Cn1nc2cc(N3CC4CC4c4cc(C(=O)N5CC(C)(F)C5)cnc43)ccn2c1=O (centres unmarked) [Compound I-20, 7-(6-(3-fluoro-3-methylazetidine-1-carbonyl)-1a,2-dihydro-1H-cyclopropa[c][1,8]naphthyridin-3(7bH)-yl)-2-methyl-[1,2,4]triazolo[4,3-a]pyridin-3(2H)-one] | 2.83 nM | 2.0
16 | Cn1nc2cc(N3CC4CC4c4cc(C(=O)N5CCCC(C(F)F)C5)cnc43)ccn2c1=O (centres unmarked) [Compound I-23, 7-(6-(3-(difluoromethyl)piperidine-1-carbonyl)-1,1a,2,7b-tetrahydro-3H-cyclopropa[c][1,8]naphthyridin-3-yl)-2-methyl-[1,2,4]triazolo[4,3-a]pyridin-3(2H)-one] | 4.26 nM | 2.93
17 | Cn1nc2cc(N3CC4CC4c4cc(C(=O)N5CCCC(F)(F)C5)cnc43)ccn2c1=O (centres unmarked) [Compound I-24, 7-(6-(3,3-difluoropiperidine-1-carbonyl)-1,1a,2,7b-tetrahydro-3H-cyclopropa[c][1,8]naphthyridin-3-yl)-2-methyl-[1,2,4]triazolo[4,3-a]pyridin-3(2H)-one] | 4.23 nM | 2.95
18 | Cn1nc2cc(N3CC4CC4c4cc(C(=O)N5CCCC(C(F)(F)F)C5)cnc43)ccn2c1=O (centres unmarked) [Compound I-26, 2-methyl-7-(6-(3-(trifluoromethyl)piperidine-1-carbonyl)-1,1a,2,7b-tetrahydro-3H-cyclopropa[c] [1,8]naphthyridin-3-yl)-[1,2,4]triazolo[4,3-a]pyridin-3(2H)-one] | 9.9 nM | 4.82
19 | Cn1ccc2cc(N3CC4CC4c4cc(C(=O)N5CCC(F)(F)CC5)cnc43)ccc2c1=O (single isomer, unassigned) [Compound I-12B] | 7.42 nM | –
20 | Cn1nc2cc(N3CC4CC4c4cc(C(=O)N5CCOCC5)cnc43)ccn2c1=O (centres unmarked) [Compound I-22, 2-methyl-7-(6-(morpholine-4-carbonyl)-1,1a,2,7b-tetrahydro-3H-cyclopropa[c][1,8]naphthyridin-3-yl)-[1,2,4]triazolo[4,3-a]pyridin-3(2H)-one] | 10.2 nM | –
21 | [2H]C([2H])([2H])n1nc2cc(N3CC4CC4c4cc(C(=O)N5CCC(F)(F)CC5)cnc43)ccn2c1=O (centres unmarked) [Compound I-25, 7-(6-(4,4-difluoropiperidine-1-carbonyl)-1,1a,2,7b-tetrahydro-3H-cyclopropa[c][1,8]naphthyridin-3-yl)-2-(methyl-d3)-[1,2,4]triazolo[4,3-a]pyridin-3(2H)-one] | 2.59 nM | –
22 | Cn1ccc2cc(N3CC4CC4c4cc(C(=O)N5CCC(F)(F)CC5)cnc43)ccc2c1=O (single isomer, unassigned) [Compound I-12A] | 1.52 nM | –
23 | CNC(=O)c1ccc(N2CC3CC3c3cc(C(=O)N4CCC(F)(F)CC4)cnc32)cc1F (centres unmarked) [Compound I-9, 4-(6-(4,4-difluoropiperidine-1-carbonyl)-1,1a,2,7b-tetrahydro-3H-cyclopropa[c][1,8]naphthyridin-3-yl)-2-fluoro-N-methylbenzamide] | 9.51 nM | –
